Values quoted from earlier work in patent publication US20060251637A1, “Oil-in-water type emulsion containing coenzyme q10 and process for producting the same” (priority 2003, published 2006).

Details: at 20° C.; decreases with decreasing temperature

Lipid solubility of coenzyme Q10: approximately 1%
Compound: COC1=C(OC)C(=O)C(C/C=C(\C)CC/C=C(\C)CC/C=C(\C)CC/C=C(\C)CC/C=C(\C)CC/C=C(\C)CC/C=C(\C)CC/C=C(\C)CC/C=C(\C)CCC=C(C)C)=C(C)C1=O [coenzyme Q10]
